Test results as given in PMC4447944 (The Journal of Biological Chemistry, 2015).

Tests used:
hEGFR(G719C) = molecular target: T1, hEGFR(G719C) (Homo sapiens, UniProt P00533, G719C); test: KINOMEscan; assay type: binding
T1 construct: purchased DiscoverX

hMAP4K3 = molecular target: T2, hMAP4K3 (Homo sapiens, UniProt Q8IVH8); test: KINOMEscan; assay type: binding
T2 construct: purchased DiscoverX (KINOMEscan platform)

hMAST1 = molecular target: T3, hMAST1 (Homo sapiens, UniProt Q9Y2H9); test: KINOMEscan; assay type: binding
T3 construct: purchased DiscoverX
T3 sequence (Q9Y2H9 whole entry): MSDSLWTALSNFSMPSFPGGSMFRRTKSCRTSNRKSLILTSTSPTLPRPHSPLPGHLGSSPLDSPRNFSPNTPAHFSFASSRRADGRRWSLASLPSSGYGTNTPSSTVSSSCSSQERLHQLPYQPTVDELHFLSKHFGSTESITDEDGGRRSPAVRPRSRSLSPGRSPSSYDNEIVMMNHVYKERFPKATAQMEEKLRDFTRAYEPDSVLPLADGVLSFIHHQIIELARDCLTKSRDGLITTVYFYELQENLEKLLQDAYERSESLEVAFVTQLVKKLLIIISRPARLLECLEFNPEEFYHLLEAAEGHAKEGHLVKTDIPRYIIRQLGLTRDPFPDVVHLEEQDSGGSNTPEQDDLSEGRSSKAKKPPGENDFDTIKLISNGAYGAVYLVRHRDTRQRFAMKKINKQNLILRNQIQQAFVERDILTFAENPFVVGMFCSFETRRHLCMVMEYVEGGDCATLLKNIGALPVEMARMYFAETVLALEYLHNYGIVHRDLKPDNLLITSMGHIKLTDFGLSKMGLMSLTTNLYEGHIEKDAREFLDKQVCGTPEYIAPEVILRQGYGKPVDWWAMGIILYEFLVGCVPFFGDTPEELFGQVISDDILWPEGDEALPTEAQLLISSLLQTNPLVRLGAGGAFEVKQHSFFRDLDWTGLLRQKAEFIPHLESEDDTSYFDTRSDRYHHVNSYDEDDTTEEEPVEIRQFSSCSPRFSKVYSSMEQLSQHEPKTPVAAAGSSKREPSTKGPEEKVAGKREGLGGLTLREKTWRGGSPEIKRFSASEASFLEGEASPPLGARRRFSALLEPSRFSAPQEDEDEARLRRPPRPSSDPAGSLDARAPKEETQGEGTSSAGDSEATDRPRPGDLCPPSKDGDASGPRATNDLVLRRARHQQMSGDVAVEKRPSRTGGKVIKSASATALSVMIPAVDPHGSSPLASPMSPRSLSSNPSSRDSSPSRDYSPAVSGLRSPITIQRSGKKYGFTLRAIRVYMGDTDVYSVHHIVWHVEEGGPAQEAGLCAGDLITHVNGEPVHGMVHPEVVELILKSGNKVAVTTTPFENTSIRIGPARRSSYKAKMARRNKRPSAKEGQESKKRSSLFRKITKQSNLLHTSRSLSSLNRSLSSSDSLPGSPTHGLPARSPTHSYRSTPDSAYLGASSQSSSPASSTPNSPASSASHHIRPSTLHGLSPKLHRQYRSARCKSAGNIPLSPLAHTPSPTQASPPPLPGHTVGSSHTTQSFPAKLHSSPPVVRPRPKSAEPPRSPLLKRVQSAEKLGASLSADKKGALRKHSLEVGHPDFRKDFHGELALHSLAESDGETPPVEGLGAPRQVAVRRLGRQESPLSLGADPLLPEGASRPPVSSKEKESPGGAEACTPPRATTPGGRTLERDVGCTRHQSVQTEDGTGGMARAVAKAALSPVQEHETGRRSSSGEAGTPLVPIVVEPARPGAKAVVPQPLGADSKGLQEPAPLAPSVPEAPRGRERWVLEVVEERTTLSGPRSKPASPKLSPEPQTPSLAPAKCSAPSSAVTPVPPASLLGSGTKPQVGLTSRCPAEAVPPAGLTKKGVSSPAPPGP

hM2 [1] = molecular target: T4, hM2 (Homo sapiens, UniProt P08172); test: β-arrestin Antagonist (Eurofins-CEREP); conditions: read-out: % Effect, Inhibition
T4 sequence (P08172 1-466): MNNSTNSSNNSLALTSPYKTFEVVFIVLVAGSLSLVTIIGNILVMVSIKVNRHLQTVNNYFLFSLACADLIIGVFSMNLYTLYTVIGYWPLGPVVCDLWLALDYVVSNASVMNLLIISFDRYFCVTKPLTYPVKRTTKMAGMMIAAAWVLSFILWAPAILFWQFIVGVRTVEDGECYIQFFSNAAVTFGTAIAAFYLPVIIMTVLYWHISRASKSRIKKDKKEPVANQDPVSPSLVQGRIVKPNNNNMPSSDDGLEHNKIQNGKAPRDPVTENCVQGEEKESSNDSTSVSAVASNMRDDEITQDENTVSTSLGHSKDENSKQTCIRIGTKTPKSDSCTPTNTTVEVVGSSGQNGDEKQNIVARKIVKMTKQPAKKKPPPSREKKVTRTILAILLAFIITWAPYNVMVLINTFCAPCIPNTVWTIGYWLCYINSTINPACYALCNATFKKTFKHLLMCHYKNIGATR

hTNIK = molecular target: T5, hTNIK (Homo sapiens, UniProt Q9UKE5); test: KINOMEscan; assay type: binding
T5 construct: purchased DiscoverX

hSIK = molecular target: T6, hSIK (Homo sapiens, UniProt P57059); test: KINOMEscan; assay type: binding
T6 construct: purchased DiscoverX (KINOMEscan platform)

[2] = test system: 454 kinases, 35 G protein-coupled receptors, 14 nuclear hormone receptors, and three cytochrome P450 enzymes; test: Off-target profiling summary; conditions: 35 GPCRs
Protocol: The compound was further profiled against 454 kinases, […], 14 nuclear hormone receptors, and three cytochrome P450 enzyme targets (supplemental Tables 2–4). The only inhibitory activity that was noted (at 98% at 10 μM) targeted the calcium mobilization antagonist mode of hADRα1A, a member of the G protein-coupled receptor family involved in epinephrine signaling.

hDLK = molecular target: T7, hDLK (Homo sapiens, UniProt Q12852); test: KINOMEscan; assay type: binding
T7 construct: purchased DiscoverX (KINOMEscan platform)

hM2 [3] = molecular target: T4, hM2; test: β-arrestin Agonist (Eurofins-CEREP); conditions: @ 10 μM
hACVR1 = molecular target: T8, hACVR1 (Homo sapiens, UniProt Q04771); test: KINOMEscan; assay type: binding
T8 construct: purchased DiscoverX (KINOMEscan platform)
T8 sequence (Q04771 21-509): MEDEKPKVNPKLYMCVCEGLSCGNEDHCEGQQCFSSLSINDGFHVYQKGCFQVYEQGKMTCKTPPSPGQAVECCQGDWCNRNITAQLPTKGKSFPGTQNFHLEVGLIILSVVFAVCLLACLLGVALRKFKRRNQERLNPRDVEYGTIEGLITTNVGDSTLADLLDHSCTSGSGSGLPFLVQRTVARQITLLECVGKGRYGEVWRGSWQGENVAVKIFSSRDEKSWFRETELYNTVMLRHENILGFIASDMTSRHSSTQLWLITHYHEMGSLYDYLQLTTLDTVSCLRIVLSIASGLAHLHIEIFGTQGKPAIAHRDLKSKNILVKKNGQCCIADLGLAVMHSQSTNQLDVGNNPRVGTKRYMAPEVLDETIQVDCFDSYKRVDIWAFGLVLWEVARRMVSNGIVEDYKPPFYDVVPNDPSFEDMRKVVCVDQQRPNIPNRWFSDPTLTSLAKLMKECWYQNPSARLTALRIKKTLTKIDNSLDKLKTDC

hERβ = molecular target: T9, hERβ (Homo sapiens, UniProt Q92731); test: Nuclear hormone receptor assay (Eurofins-CEREP); conditions: read-out: Relative IC50
T9 construct: Eurofins-CEREP

hSRMS = molecular target: T10, hSRMS (Homo sapiens, UniProt Q9H3Y6); test: KINOMEscan; assay type: binding
T10 construct: purchased DiscoverX (KINOMEscan platform)
T10 sequence (Q9H3Y6 whole entry): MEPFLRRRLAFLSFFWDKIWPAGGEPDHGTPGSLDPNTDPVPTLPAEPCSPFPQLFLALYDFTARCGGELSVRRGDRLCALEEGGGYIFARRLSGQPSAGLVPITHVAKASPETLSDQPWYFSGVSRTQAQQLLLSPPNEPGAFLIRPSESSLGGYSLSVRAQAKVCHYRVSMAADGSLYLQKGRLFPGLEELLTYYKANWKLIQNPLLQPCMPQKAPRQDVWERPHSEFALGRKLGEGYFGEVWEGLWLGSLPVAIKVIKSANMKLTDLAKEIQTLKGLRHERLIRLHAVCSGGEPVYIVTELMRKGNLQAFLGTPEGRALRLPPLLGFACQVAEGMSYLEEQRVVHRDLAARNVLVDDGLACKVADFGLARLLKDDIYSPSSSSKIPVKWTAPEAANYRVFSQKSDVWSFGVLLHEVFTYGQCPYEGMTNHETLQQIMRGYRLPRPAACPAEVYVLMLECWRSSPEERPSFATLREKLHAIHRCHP

hHIPK3 = molecular target: T11, hHIPK3 (Homo sapiens, UniProt Q9H422); test: KINOMEscan; assay type: binding
T11 construct: purchased DiscoverX

hFLT1 = molecular target: T12, hFLT1 (Homo sapiens, UniProt P17948); test: KINOMEscan; assay type: binding
T12 construct: purchased DiscoverX
T12 sequence (P17948 27-1338): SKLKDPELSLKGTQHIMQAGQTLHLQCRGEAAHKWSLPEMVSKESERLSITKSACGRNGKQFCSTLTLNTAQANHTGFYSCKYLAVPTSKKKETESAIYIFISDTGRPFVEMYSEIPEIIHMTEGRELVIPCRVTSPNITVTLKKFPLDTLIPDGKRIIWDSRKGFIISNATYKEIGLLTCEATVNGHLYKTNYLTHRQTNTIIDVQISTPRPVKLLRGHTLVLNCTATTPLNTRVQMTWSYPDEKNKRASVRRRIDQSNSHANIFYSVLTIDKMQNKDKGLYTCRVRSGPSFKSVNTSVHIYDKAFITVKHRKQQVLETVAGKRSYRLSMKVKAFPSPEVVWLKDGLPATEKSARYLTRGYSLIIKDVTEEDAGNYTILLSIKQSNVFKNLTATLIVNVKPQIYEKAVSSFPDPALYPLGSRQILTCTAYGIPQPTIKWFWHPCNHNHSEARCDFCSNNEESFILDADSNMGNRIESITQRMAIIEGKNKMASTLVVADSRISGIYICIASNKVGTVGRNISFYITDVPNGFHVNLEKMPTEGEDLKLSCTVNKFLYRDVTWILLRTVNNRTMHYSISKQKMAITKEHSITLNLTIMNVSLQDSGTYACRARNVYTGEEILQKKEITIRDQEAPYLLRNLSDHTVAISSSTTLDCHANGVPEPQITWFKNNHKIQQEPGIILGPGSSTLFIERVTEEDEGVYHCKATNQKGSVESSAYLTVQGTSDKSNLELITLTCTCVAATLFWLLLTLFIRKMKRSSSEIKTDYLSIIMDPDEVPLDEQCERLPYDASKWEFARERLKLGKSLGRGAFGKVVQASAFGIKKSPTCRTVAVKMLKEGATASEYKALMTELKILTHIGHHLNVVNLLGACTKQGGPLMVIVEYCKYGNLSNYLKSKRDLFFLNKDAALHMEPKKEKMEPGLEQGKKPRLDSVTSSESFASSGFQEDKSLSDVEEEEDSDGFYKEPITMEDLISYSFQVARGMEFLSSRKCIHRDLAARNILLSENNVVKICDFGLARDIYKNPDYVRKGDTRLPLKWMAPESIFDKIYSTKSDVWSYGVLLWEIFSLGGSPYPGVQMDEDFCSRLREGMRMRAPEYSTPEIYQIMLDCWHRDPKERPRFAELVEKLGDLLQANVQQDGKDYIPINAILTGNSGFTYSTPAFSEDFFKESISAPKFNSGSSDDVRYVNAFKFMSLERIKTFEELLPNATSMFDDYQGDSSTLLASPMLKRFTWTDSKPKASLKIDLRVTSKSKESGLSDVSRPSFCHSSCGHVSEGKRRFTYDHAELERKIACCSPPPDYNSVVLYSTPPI

hASK2 = molecular target: T13, hASK2 (Homo sapiens, UniProt O95382); test: KINOMEscan; assay type: binding
T13 construct: purchased DiscoverX

hADCK4 = molecular target: T14, hADCK4 (Homo sapiens, UniProt Q96D53); test: KINOMEscan; assay type: binding
T14 construct: purchased DiscoverX
T14 sequence (Q96D53 whole entry): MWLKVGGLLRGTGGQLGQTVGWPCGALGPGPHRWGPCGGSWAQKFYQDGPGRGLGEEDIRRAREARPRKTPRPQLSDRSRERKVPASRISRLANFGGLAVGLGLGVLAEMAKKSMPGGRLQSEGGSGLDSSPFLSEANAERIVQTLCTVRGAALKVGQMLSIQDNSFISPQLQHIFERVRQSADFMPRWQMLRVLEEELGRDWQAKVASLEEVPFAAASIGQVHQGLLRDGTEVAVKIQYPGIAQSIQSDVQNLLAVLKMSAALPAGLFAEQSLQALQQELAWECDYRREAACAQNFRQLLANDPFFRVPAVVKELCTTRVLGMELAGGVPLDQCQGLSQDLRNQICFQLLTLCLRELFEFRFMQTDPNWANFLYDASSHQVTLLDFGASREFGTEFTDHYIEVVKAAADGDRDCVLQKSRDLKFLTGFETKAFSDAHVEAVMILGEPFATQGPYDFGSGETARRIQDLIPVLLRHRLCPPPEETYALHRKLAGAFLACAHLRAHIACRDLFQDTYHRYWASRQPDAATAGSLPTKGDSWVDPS

hMARK4 = molecular target: T15, hMARK4 (Homo sapiens, UniProt Q96L34); test: KINOMEscan; assay type: binding
T15 construct: purchased DiscoverX

hADORA3 = molecular target: T16, hADORA3 (Homo sapiens, UniProt P0DMS8); test: cAMP Agonist (Eurofins-CEREP); conditions: @ 10 μM
T16 sequence (P0DMS8 1-318): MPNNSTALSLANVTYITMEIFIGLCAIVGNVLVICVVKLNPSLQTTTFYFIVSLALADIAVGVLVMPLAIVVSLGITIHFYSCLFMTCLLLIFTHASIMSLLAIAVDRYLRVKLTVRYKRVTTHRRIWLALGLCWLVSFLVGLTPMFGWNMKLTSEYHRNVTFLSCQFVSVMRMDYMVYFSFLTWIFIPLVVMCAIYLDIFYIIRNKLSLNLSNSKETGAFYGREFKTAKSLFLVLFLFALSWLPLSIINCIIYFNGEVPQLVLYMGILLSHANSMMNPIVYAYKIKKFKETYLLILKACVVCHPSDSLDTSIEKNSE

hBTK = molecular target: T17, hBTK (Homo sapiens, UniProt Q06187); test: KINOMEscan; assay type: binding
T17 construct: purchased DiscoverX

hFAK = molecular target: T18, hFAK (Homo sapiens, UniProt Q05397); test: KINOMEscan; assay type: binding
T18 construct: purchased DiscoverX

hH1 = hH1 (Homo sapiens, UniProt P35367); test: β-arrestin Antagonist (Eurofins-CEREP); conditions: read-out: % Effect, Inhibition
Chain of hH1 (P35367 whole entry): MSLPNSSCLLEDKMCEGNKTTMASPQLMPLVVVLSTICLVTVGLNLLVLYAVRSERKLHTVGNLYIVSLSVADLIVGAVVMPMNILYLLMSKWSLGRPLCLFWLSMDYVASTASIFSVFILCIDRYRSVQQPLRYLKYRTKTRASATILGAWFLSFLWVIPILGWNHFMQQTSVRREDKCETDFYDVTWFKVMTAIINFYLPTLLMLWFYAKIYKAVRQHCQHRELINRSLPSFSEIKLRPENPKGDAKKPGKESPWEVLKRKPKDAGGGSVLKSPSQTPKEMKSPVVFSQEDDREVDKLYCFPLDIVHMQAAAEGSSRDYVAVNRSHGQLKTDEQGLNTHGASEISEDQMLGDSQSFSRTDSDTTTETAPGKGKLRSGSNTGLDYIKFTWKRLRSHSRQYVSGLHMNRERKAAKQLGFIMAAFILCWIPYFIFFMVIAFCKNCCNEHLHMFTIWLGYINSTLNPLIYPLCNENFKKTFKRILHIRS

hSTK39 = molecular target: T19, hSTK39 (Homo sapiens, UniProt Q9UEW8); test: KINOMEscan; assay type: binding
T19 construct: purchased DiscoverX (KINOMEscan platform)

hHPK1 = molecular target: T20, hHPK1 (Homo sapiens, UniProt Q92918); test: KINOMEscan; assay type: binding
T20 construct: purchased DiscoverX (KINOMEscan panel)

hRET(M918T) = molecular target: T21, hRET(M918T) (Homo sapiens, UniProt P07949, M918T); test: KINOMEscan; assay type: binding
T21 construct: purchased DiscoverX (KINOMEscan platform)

hDAPK3 = molecular target: T22, hDAPK3 (Homo sapiens, UniProt O43293); test: KINOMEscan; assay type: binding
T22 construct: purchased DiscoverX (KINOMEscan platform)

hEPHA4 = molecular target: T23, hEPHA4 (Homo sapiens, UniProt P54764); test: KINOMEscan; assay type: binding
T23 construct: purchased DiscoverX

`Cc1cn(CCN2CCN(c3ccccc3-c3cc(C#N)cc(C(=O)NCCCN4CCCC4)c3)CC2)c2ccccc12` [LLY-507, 3-cyano-5-{2-[4-[2-(3-methylindol-1-yl)ethyl]piperazin-1-yl]-phenyl}-N-[(3-pyrrolidin-1-yl)propyl]benzamide] showed an IC50 (hEGFR(G719C)) greater than 20 µM, an IC50 (hMAP4K3) greater than 20 µM and an IC50 (hMAST1) greater than 20 µM. It also gave an inhibition at 10 µM (hM2 [1]) of 36.3%, an IC50 (hTNIK) greater than 20 µM and an IC50 (hSIK) greater than 20 µM. For the same compound, the “inactive against off-target panels” value [2] was greater than 20 µM, the IC50 (hDLK) was greater than 20 µM and the “% Effect, Stimulation” value (hM2 [3]) was 5.1%. The IC50 (hACVR1) was greater than 20 µM, the IC50 (hERβ) was greater than 10 µM and the IC50 (hSRMS) was greater than 20 µM. For the same compound, the IC50 (hHIPK3) was greater than 20 µM, the IC50 (hFLT1) was greater than 20 µM and the IC50 (hASK2) was greater than 20 µM. The IC50 (hADCK4) was greater than 20 µM, the IC50 (hMARK4) was greater than 20 µM and the “% Effect, Stimulation” value (hADORA3) was 2.6%. It also gave an IC50 (hBTK) greater than 20 µM, an IC50 (hFAK) greater than 20 µM and an inhibition at 10 µM (hH1) of 30.1%. For the same compound, the IC50 (hSTK39) was greater than 20 µM, the IC50 (hHPK1) was greater than 20 µM and the IC50 (hRET(M918T)) was greater than 20 µM. For the same compound, the IC50 (hDAPK3) was greater than 20 µM and the IC50 (hEPHA4) was greater than 20 µM.
